Measured values as given in patent US8754058B2, “Inhibitors of FAM3B gene, inhibitor compositions, inhibiting methods and applications of inhibitors in preparing pharmaceuticals” (Suzhou Ribo Life Science Company, Ltd., priority 2009, dated 2014).
Entries after “also recorded” stand apart in the source; their conditions may differ. d = 2'-deoxy (DNA); r = 2'-OH (RNA)

How the values were obtained:
[1] = tested on: hyperlipemia model of mice; test: TG and cholesterol levels in blood of hyperlipemia model mice; format: in vivo; details: tail vein, daily for 7 days, FIG. 9
Description: (§1) The hyperlipemia model of mice is induced by using high-fat feeds, the C57BL/6J mice are purchased from Vital River, male, three weeks old. The formula for the high fat feeds is as below: basic feeds 83.5%, […], 1% cholesterol, 10% pork fat, 0.2% propylthiouracil, 0.3% sodium deoxycholate, 5% sucrose, and it is produced by the experimental animal center of Academy of Military Medical Sciences. The hyperlipemia model of mice is obtained after induction for 3-4 weeks.
(§2) After the small interfering nucleotide of FAM3B gene FAM3B-46 is labelled with cholesterol or coated with liposome, it is injected into the hyperlipemia model of mice via their tail veins. The injection is carried out for continuous 7 days with one injection each day and the samples are collected after 7 days. The standard dosages for injection are 2.5 mg, 5 mg and 10 mg for every kilogram of body weight. Other dosages such as 0.1 mg-50 mg small interfering nucleotide for every kilogram of body weight are also under test.

[2] = tested on: FAM3B protein in hepatic tissues; test: FAM3B protein expression in hepatic tissues of hyperlipemia model mice; format: in vivo; details: tail vein, daily for 7 days
Description: as §1, §2

[3] = tested on: hepatic adipose infiltration model mice; test: hepatic adipose infiltration model in mice (MCD diet), oil red O and HE staining of hepatic sections; format: in vivo; details: tail i.v. once every three days, 15 days, 2.5, 5 and 10 mg/kg, FIG. 2
Description: (1) Induction on hepatic adipose infiltration model in mice. 10 male C57BL/6J mice (purchased from the department of experimental animals, Medical Division of Peking University) with age of 8-10 weeks are divided into two groups (normal diet and MCD diet). MCD (high-fat, methionine-choline deficient) diet is a common program for the investigations on non-alcoholic fatty liver in this field. The hepatic adipose infiltration model in mice is obtained after treatments for 10-16 weeks. (2) Treatments on Hepatic Adipose Infiltration Using Small Interfering Nucleotides
1.2 mg (0.09 μmol) small interfering nucleotides from FAM3B-43 to FAM3B-46 with modification in the example 3 is dissolved in 1.5 ml RNAase free sterilized physiological saline to prepare a solution comprising 60 μmol/L small interfering nucleotides, and it is mixed in certain proportion with the carrier material. The injection is obtained after the mixed small interfering nucleotide is added into 5 ml RNAase free sterile physiological saline (the concentration of the small interfering nucleotide is 0.25 mg/ml). […]

[4] = tested on: hyperlipemia model of mice; test: TG and cholesterol levels in hepatic tissues of hyperlipemia model mice; format: in vivo; details: tail vein, daily for 7 days, FIG. 8
Description: as §1
as §2, with “test. The products from Zhongsheng Beikong Biological Technological Co., Ltd. are used as the kit for detecting triglyceride (TG) and cholesterol, and they are determined on a SABA/18 automated biochemical analyzer. The detections are carried out with reference to the instruction for the kits of Biosino Bio-Technology and Science Incorporation. The animals are subjected to fast dieting 16 hours before blood sample collection.” for “test.”

FAM3B mRNA in intestine = test: FAM3B mRNA expression in intestine of hyperlipemia model mice; format: in vivo; details: tail vein, daily for 7 days, FIG. 7
Description: as §1, §2

[5] = tested on: FAM3B protein in intestine; test: FAM3B protein expression in intestine of hyperlipemia model mice; format: in vivo; details: tail vein, daily for 7 days
Description: as §1, §2

[6] = tested on: FAM3B protein in HepG2 cells; test: Western blot of FAM3B protein in transfected HepG2 cells; format: cell-based, human; details: 48 hours after transfection, Western blot grayscale, FIG. 5
Experimental: The cells are digested with 0.25% trypsin 24 hours before the transfection, then the cells are counted and inoculated into the 24 well plate in a density of 1×10^5 cells/ml, and 1000 μl cells are added in each well. Lipofectamine™ 2000 liposome from Invitrogen Company is used for the transfection with the small interfering nucleotides obtained from example 1 (FAM3B-1 to FAM3B-32) respectively, and unrelated small interfering nucleotide (the sense strand: 5-[…]-3 (SEQ ID NO: 78); the antisense strand: 5-ACGUGACACGUUC GGAGAATT-3 (SEQ ID NO: 79)) is used as the negative control.
(4) Inhibition on FAM3B Protein Expression by Using Small Interfering Nucleotides
After the cells transfected according to step (2) in example 6 are cultured for 48 hours, the cells are disrupted by using the protein lysis buffer and the total proteins are extracted, and the protein sample is examined according to the standard procedure for Western blot. For the detection of FAM3B protein, the membrane is incubated with the rabbit derived anti-FAM3B antibody (R&D systems), the secondary antibody is the peroxidase labelled horse anti-rabbit antibody (Zhongshan Jinqiao); the antibody for detecting the internal reference β-actin: the primary antibody is mouse derived anti-β-actin antibody, and the secondary antibody is the peroxidase labelled goat anti-mouse antibody, and the results are subjected to grayscale comparison shown as FIG. 5.

HepG2 cells = test: inhibition of fat-emulsion-induced lipid accumulation in HepG2 cells, oil red O staining; format: cell-based, human; details: 20% fat emulsion induction 48 hours, 50 nM, 48 hours after transfection, FIG. 6
Experimental: (1) Induction of Lipid Accumulation in HepG2 Cells
The cells are inoculated in the 24 well culture plate in a density of 2×10^4 cells/1 mL, 20% fat emulsion for medical use is added in each well in a dosage of 2 ml/L, and the cells are cultured for 48 hours. The culture is stopped and oil red O staining is carried out to observe the lipids in the cells. The operations are as followed: the cells are rinsed with PBS for three times and 5 minutes each; then the cells are fixed with 50% isopropanol for 1 min and stained with oil red O for 10 min; the cells are rinsed with distilled water for three times and 1 min each; the cells are observed and photographed under a microscope. Normally, the cells might be not stained or only slightly stained, large amount of lipids accumulated in the cells after induction with fat emulsion for medical use, and red lipid droplets can be detected under the microscope after the staining with oil red O.
(2) Determination of the Inhibitory Effects on Lipid Accumulation in HepG2 Cells […]

[7] = standard dosages and 10 mg/kilogram body weight
[8] = standard dosages 2.5, 5, 10 mg/kg

With “FAM3B-46: chemically modified mouse FAM3B siRNA (2′-O-methyl sense with cholesterol, 2′-fluoro antisense); 5-UCAGAAAUCGAGAGAGAAAdTdT; 5-UUUCUCUCUCGAUUUCUGAdTdT (sense UCAGAAAUCGAGAGAGAAATT; antisense UUUCUCUCUCGAUUUCUGATT; Sense 2'-OMe, antisense 2'-F at italic positions, sense cholesterol at terminus, further chemistry not given here)” the “reduction of TG level in blood” value [1] was “significantly reduce”, the “reduction of cholesterol level in blood” value [1] was “significantly reduce” and the “reduction of TG level in blood” value [1, 7] was 25-50%. The “reduction of cholesterol level (cholesterol level in blood examined; printed 'in hepatic tissues')” value [1, 7] was 25-50%, the “reduction of FAM3B protein expression in hepatic tissues” value [2, 8] was 40% and the “degree of hepatic adipose infiltration (oil red O and HE staining)” value [3] was “effectively reduce the degree of hepatic adipose infiltration; also recorded: significantly reduced”. The “reduction of TG level in hepatic tissues” value ([4]; 5 mg and 10 mg/kilogram body weight) was 20-40%, the “reduction of cholesterol level in hepatic tissues” value ([4]; 10 mg/kilogram body weight) was 15-30% and the “reduction of TG level in hepatic tissues” value [4] was “significantly reduce”. For the same substance, the “reduction of cholesterol level in hepatic tissues” value [4] was “significantly reduce”, the “reduction of FAM3B mRNA expression in intestine” value (FAM3B mRNA in intestine) was “significantly inhibit” and the “reduction of FAM3B mRNA expression in intestine” value (FAM3B mRNA in intestine; [8]) was 45%. The “reduction of FAM3B protein expression in intestine” value [5, 8] was 30%.

In the case of “unrelated small interfering nucleotide: negative control siRNA; sense 5-UUCUCCGAACGUGUCACGUTT-3 (SEQ ID NO: 78); antisense 5-ACGUGACACGUUCGGAGAATT-3 (SEQ ID NO: 79) (chemistry not given here) [reference compound]”, the “reduction of TG level in blood” value [1] is reported as “could not significantly reduce”, the “reduction of cholesterol level in blood” value [1] is reported as “could not significantly reduce” and the “reduction of FAM3B protein expression in hepatic tissues” value [2] is reported as “could not significantly reduce”. For the same substance, the “reduction of TG level in hepatic tissues” value [4] was “could not significantly reduce”, the “reduction of cholesterol level in hepatic tissues” value [4] was “could not significantly reduce” and the “reduction of FAM3B mRNA expression in intestine” value (FAM3B mRNA in intestine) was “could not significantly reduce”. The “reduction of FAM3B protein expression in intestine” value [5] was “could not significantly reduce”.

With “FAM3B-15: siRNA, human FAM3B; sense 5′-GCACUUGGAAGUAAAGAAAdTdT-3′; antisense 5′-UUUCUUUACUUCCAAGUGCdTdT-3′ (sense GCACUUGGAAGUAAAGAAATT; antisense UUUCUUUACUUCCAAGUGCTT; sugars from the 5' end r19 d2, backbone not given here)” the “inhibition of FAM3B protein expression in HepG2 cells” value [6] was “significantly inhibit”.

In the case of “FAM3B-24: siRNA, human FAM3B; sense 5′-GAGUAAAUGUGUUCUGUAUdTdT-3′; antisense 5′-AUACAGAACACAUUUACUCdTdT-3′ (sense GAGUAAAUGUGUUCUGUAUTT; antisense AUACAGAACACAUUUACUCTT; sugars from the 5' end r19 d2, backbone not given here)”, the “inhibition of FAM3B protein expression in HepG2 cells” value [6] is reported as “significantly inhibit”.

For “FAM3B-17: siRNA, human FAM3B; sense 5′-GGUCUAGCUGGGUAUUUAUdTdT-3′; antisense 5′-AUAAAUACCCAGCUAGACCdTdT-3′ (sense GGUCUAGCUGGGUAUUUAUTT; antisense AUAAAUACCCAGCUAGACCTT; sugars from the 5' end r19 d2, backbone not given here)”, the “inhibition of FAM3B protein expression in HepG2 cells” value [6] was “significantly inhibit”.

For “FAM3B-20: siRNA, human FAM3B; sense 5′-GCUAAGAACAACAGAUAUUdTdT-3′; antisense 5′-AAUAUCUGUUGUUCUUAGCdTdT-3′ (sense GCUAAGAACAACAGAUAUUTT; antisense AAUAUCUGUUGUUCUUAGCTT; sugars from the 5' end r19 d2, backbone not given here)”, the “inhibition of FAM3B protein expression in HepG2 cells” value [6] was “significantly inhibit” and the “inhibition of fatty deposition in HepG2 cells” value (HepG2 cells) was “significantly inhibit fatty deposition”.

“FAM3B-11: siRNA, human FAM3B; sense 5′-CUCUGGACCGAUGACAAAGdTdT-3′; antisense 5′-CUUUGUCAUCGGUCCAGAGdTdT-3′ (sense CUCUGGACCGAUGACAAAGTT; antisense CUUUGUCAUCGGUCCAGAGTT; sugars from the 5' end r19 d2, backbone not given here)” was tested, and the “inhibition of FAM3B protein expression in HepG2 cells” value [6] was “significantly inhibit”.
